Calls of active or inactive are those of the source. The rule behind the calls is not given here.
How the values were obtained:
B16 [1] = test: Compound was evaluated for the cytotoxicity against B16 melanoma cells after 40h incubation expressed as ratio relative to that of taxol; assay type: functional, Mus musculus
[2] = target: Tubulin alpha chain (Sus scrofa) (UniProt P02550); test: (§1) Concentration which causes polymerization of 50 % of the tubulin present, in 15 min at 37 C, as a ratio in comparison wth taxol (taxol ED50 = 0.7 to 0.8 uM); assay type: functional
Tubulin alpha chain (Sus scrofa), sequence (P02550 whole entry, looked up): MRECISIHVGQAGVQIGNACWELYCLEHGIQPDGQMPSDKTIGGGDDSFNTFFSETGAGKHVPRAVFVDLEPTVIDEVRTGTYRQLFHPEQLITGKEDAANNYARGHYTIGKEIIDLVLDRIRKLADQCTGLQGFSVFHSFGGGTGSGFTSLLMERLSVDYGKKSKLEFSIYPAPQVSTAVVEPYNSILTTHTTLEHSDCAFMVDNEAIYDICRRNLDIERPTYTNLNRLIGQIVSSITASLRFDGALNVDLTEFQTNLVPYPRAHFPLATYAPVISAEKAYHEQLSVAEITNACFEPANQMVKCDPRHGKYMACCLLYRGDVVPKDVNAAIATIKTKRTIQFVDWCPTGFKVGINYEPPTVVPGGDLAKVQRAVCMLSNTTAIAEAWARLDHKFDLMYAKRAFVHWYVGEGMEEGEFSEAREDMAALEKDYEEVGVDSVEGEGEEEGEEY

[3] = as §1; assay type: functional
B16 [4] = test: Compound was evaluated for the cytotoxicity against B16 melanoma cells after 40h incubation expressed as ratio relative to that of taxol; NA - No cytotoxicity; assay type: functional, cell-based; conditions: Mus musculus

| SMILES | Ratio [2] | ED50 / ED50 (taxol) (B16 [1]) | Ratio [3] | ED50 / ED50 (taxol) (B16 [4]) |
| --- | --- | --- | --- | --- |
| CC(=O)O[C@H]1C(=O)[C@@]2(C)[C@H]([C@H](OC(=O)c3ccccc3)[C@]3(O)C[C@H](OC(=O)[C@H](O)[C@@H](NC(=O)c4ccc(C)cc4)c4ccccc4)C(C)=C1C3(C)C)[C@]1(OC(C)=O)CO[C@@H]1C[C@@H]2O | 1.6 | 1.4 | – | – |
| CC(=O)O[C@H]1C(=O)[C@@]2(C)[C@H]([C@H](OC(=O)c3ccccc3)[C@]3(O)C[C@H](OC(=O)[C@H](O)[C@@H](NC(=O)c4ccccc4)c4ccccc4)C(C)=C1C3(C)C)[C@]1(OC(C)=O)CO[C@@H]1C[C@@H]2O | – | – | 0.7 | – |

Second part, led by results:

| Ratio [2] | SMILES | ED50 / ED50 (taxol) (B16 [1]) | Ratio [3] | ED50 / ED50 (taxol) (B16 [4]) |
| --- | --- | --- | --- | --- |
| inactive | CC(=O)O[C@H]1C(=O)[C@@]2(C)[C@H]([C@H](OC(=O)c3ccccc3)[C@]3(O)C[C@H](OC(=O)[C@H](O)[C@@H](NC(=O)c4ccccc4)c4ccc(C(F)(F)F)cc4)C(C)=C1C3(C)C)[C@]1(OC(C)=O)CO[C@@H]1C[C@@H]2O | – | – | inactive |
| 2.4 | CC(=O)O[C@H]1C(=O)[C@@]2(C)[C@H]([C@H](OC(=O)c3ccccc3)[C@]3(O)C[C@H](OC(=O)[C@H](O)[C@@H](NC(=O)c4ccccc4)c4ccc(C)cc4)C(C)=C1C3(C)C)[C@]1(OC(C)=O)CO[C@@H]1C[C@@H]2O | 3 | – | – |
| 6 | CC(=O)O[C@H]1C(=O)[C@@]2(C)[C@H]([C@H](OC(=O)c3ccccc3)[C@]3(O)C[C@H](OC(=O)[C@H](O)[C@@H](NC(=O)c4ccc(C(F)(F)F)cc4)c4ccccc4)C(C)=C1C3(C)C)[C@]1(OC(C)=O)CO[C@@H]1C[C@@H]2O | 17.7 | – | – |
